Experimental data published in patent US7589094B2, “N- (3-amino-2-hydroxy-propyl) substituted alkylamide compounds” (Elan Pharmaceuticals, Inc., priority 2001, dated 2009).

Structure (SMILES) | melting point
CCCC1CCC(CC(=O)N[C@@H](Cc2cc(F)cc(F)c2)[C@H](O)CNCc2cccc(CC)c2)CC1=O (stereo partly drawn) [Compound 213, N-{(1S,2R)-1-(3,5-difluorobenzyl)-3-[(3-ethylbenzyl)amino]-2-hydroxypropyl}-2-(3-oxo-4-propylcyclohexyl)acetamide] | 52 to 54 °C
CCc1cccc(CNC[C@@H](O)[C@H](Cc2cc(F)cc(F)c2)NC(=O)CC2CCCC(=O)C2)c1 (stereo partly drawn) [Compound 214, N-{(1S,2R)-1-(3,5-difluorobenzyl)-3-[(3-ethylbenzyl)amino]-2-hydroxypropyl}-2-(3-oxocyclohexyl)acetamide] | 139.5 to 149.8 °C
